The values that follow are results of earlier work, collected in patent US6045822A, “Liposome preparations of indolocarbazole derivatives description” (Kyowa Hakko Kogyo Co., Ltd., priority 1996, dated 2000).

Each structure is given as a SMILES string.

For series [1] the following is noted: in words; Cancer Res., 51, 4888 (1991).
In the next series the test system is protein kinase C. As to conditions: in words; J. Antibiotics., 40, 1782 (1987).

For the compound `CNC1CC2OC(C)(C1OC)n1c3ccccc3c3c4c(c5c6ccccc6n2c5c31)C(=O)NC4O` (centres unmarked) [UCN-01], in series [1], the anti-tumor activity result is on record as “has anti-tumor activity”. Further, the “protein kinase C inhibitory activity” value in the series on protein kinase C is “has protein kinase C inhibitory activity”.
